Key:
Type in all cases: binding, humanized
Tocilicumab = assay: SPR screening of chemical microarrays, Tocilizumab; conditions: chemical microarray, immobilized ligand
Text: (§1) Graffinity has developed high density chemical microarrays comprising thousands of small molecules immobilized onto gold chips. The arrays are constructed using maleimide-thiol coupling chemistry in combination with high density pintool spotting. For the construction, glass plates are microstructured by photolithographical methods in order to define up to 9,216 sensor fields per array. A subsequently applied gold coating provides the basis for the SPR effect and enables the formation of a binary, mixed self assembled monolayer (SAM) of two different thiols. […]
(§2) Surface plasmons are collective oscillations of electrons at a metal surface which can be resonantly excited by polarized light of appropriate wavelength and incidence angle. […] Processes which alter the local refractive index in close proximity to the metal surface (such as antibody binding to the immobilized ligands) can therefore be monitored sensitively. […] While scanning over a range of wavelengths covering the SPR resonance conditions, reflection images are recorded stepwise. […]
(§3) The experimental results of the microarray screening campaigns were analyzed by manual hit selection using in-house developed software routines as well as by an in-depth data analysis by commercially available data mining tools. […]

Bevacizumab Fab fragment [1] = assay: Microtiter plate chromatography of resins, Bevacizumab Fab fragment (bound)
Experimental: Resins were assessed in packed mode by microtiter plate chromatography. For each column, approximately 30 μl of resin were transferred to a 384-well filter plate and sealed with appropriate top frits.
Columns were equilibrated with 6.7 column volumes (cv) of phosphate buffered saline (0.15 M NaCl, 20 mM sodium phosphate, pH 7.3; PBS) prior to injection. Either 3.3 cv of whole IgGs dissolved at 0.75 mg ml^−1, Fab or Fc fragments dissolved at 0.25 mg ml^−1 (all three in PBS) or host cell proteins (HCP) were injected onto columns. Antibody fragments of Bevacizumab (Fab and Fc) were prepared by cleavage of whole IgG with papain protease (3) according to the protocol of the manufacturer. […] Volumes transferred were spun through columns at 50 g for 1-2 min. During injection of samples, acceleration was reduced to 10 g and centrifugation time increased to 5-10 min. Effluent fractions were collected in 384-well plates and concentrations of protein analyzed by Bradford assay. Protein masses mi, mft and me (see below) were calculated as the product of fraction volume and measured protein concentration.
The fraction of ‘bound’ protein was calculated as the difference between the total mass of protein injected mi and the mass of protein detected in the flowthrough mft, divided by the total mass of protein injected.
the fraction of ‘bound’ protein and the ‘yield’ of protein were calculated for each resin based on data for whole IgG-antibodies. In the case of Bevacizumab fragments and host cell proteins, only the fraction of ‘bound’ protein is given. Selectivity of resins was calculated from data for Bevacizumab Whole IgG and host cell proteins. Due to limited experimental precision, selectivity was truncated beyond values of 10.

Bevacizumab = target: T1, Bevacizumab (Homo sapiens, UniProt P01857); assay: Microtiter plate chromatography of resins, Bevacizumab whole IgG (bound, yield, selectivity)
T1 construct: fused on or other part: humanised anti-VEGF-A VH domain N-terminal of the gamma-1 constant region (engineered, no UniProt entry)

Bevacizumab Fab fragment [2] = assay: SPR screening of chemical microarrays, Bevacizumab Fab fragment; conditions: chemical microarray, immobilized ligand
Text: as §1, §2, §3

Tocilizumab = assay: Microtiter plate chromatography of resins, Tocilizumab (bound, yield)

COc1ccc(NC(=O)c2cc(-c3ccco3)n(C)n2)cc1C(=O)NCCCN [Ligand L1, 5-[5-(2-Furyl)-1-methylpyrazol-3-yl]carboxamido-2-methoxybenzoic acid N-(3-aminopropyl)amide]
SPR binding to full length Tocilicumab (Tocilicumab): clearly bound
Bevacizumab Fab Bound (%) (Bevacizumab Fab fragment [1]; Bevacizumab Fab fragment): 18%
binding of Bevacizumab Fab-fragment (Bevacizumab Fab fragment [1]; Fab 0.25 mg ml^-1 in PBS): not the Fab-fragment
Bevacizumab IgG Bound (%) (Bevacizumab; fraction of whole IgG Bevacizumab bound to resin): 100%
Bevacizumab IgG Yield (%) (Bevacizumab; mass of whole IgG Bevacizumab eluted / mass injected): 91%
SPR binding to Bevacizumab Fab fragment (Bevacizumab Fab fragment [2]): only minor binding
Tocilizumab Bound (%) (Tocilizumab): 100%
Tocilizumab Yield (%) (Tocilizumab): 97%
